Measured values: the supplement of paper PMC11451515

How the values were obtained:
Details in all cases: 48 h
[1] = tested on: SEM cells; experiment: cell viability relative to DMSO control; higher = less cytotoxic
Method in brief: (§1)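 Leukemia cells (NOMO1 or SEM, 500 cells/well; P12-Ichikawa, 1000 cells/well) were seeded in 5 μl in 1536-well plates after at least four passages of adaptation to each medium. They received library compounds in DMSO by pin dosing, 11 threefold points from 47 μM to 0.79 nM. Luminescence with CellTiter-Glo One was read after 48 h at 37°C. Viability is stated per plate relative to DMSO wells, with cell-free wells as background.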

[2] = tested on: NOMO1; experiment: as above
Method in brief: as §1

[3] = tested on: P12-Ichikawa; experiment: as above
Method in brief: as §1

[4] = tested on: SEM cells; experiment: AUC of viability dose-response curve (% viability x log10 dose units); higher = less sensitive
Method in brief: (§2)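 Seeding of medium-adapted leukemia cells was at 500 or 1000 cells/well in 1536-well plates, followed by 48 h at 37°C with library compounds in DMSO at 11 threefold doses from 47 μM to 0.79 nM. CellTiter-Glo One luminescence was normalised per plate to DMSO and cell-free wells and fitted as a four-parameter log-logistic function of log10 dose. Area under the curve was integrated by trapezoidal rule, with curves exceeding full viability scaled and curves failing quality control removed.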

[5] = tested on: NOMO1; experiment: as above
Method in brief: as §2

[6] = tested on: P12-Ichikawa; experiment: as above
Method in brief: as §2

CN1CCN(CC1)C2=CC3=C([NH]C(=N3)C/4=C(\N)C5=C(F)C=CC=C5NC4=O)C=C2
cell viability [%]
Details | [1] | [2] | [3]
HPLM + 10% dialyzed FBS, 0.000781 µM | 39.9 | 104 | 103
HPLM + 10% dialyzed FBS, 0.00234 µM | 48.9 | 99.7 | 106
HPLM + 10% dialyzed FBS, 0.00702 µM | 44.5 | 98.5 | 109
HPLM + 10% dialyzed FBS, 0.0211 µM | 45.4 | 97.4 | 99.2
HPLM + 10% dialyzed FBS, 0.0632 µM | 31 | 96.3 | 88.7
HPLM + 10% dialyzed FBS, 0.19 µM | 46.1 | 102 | 99.7
HPLM + 10% dialyzed FBS, 0.569 µM | 36.6 | 97.2 | 96.3
HPLM + 10% dialyzed FBS, 1.71 µM | 26.5 | 93.9 | 95
HPLM + 10% dialyzed FBS, 5.12 µM | 21.4 | 60.8 | 73
HPLM + 10% dialyzed FBS, 15.4 µM | 17.3 | 49.7 | 65.5
HPLM + 10% dialyzed FBS, 46.1 µM | 5.83 | 51.1 | 37
RPMI 5 mM glucose + 10% FBS, 0.000781 µM | 52.6 | 101 | 107
RPMI 5 mM glucose + 10% FBS, 0.00234 µM | 65.8 | 107 | 103
RPMI 5 mM glucose + 10% FBS, 0.00702 µM | 50 | 96.7 | 111
RPMI 5 mM glucose + 10% FBS, 0.0211 µM | 54.7 | 107 | 112
RPMI 5 mM glucose + 10% FBS, 0.0632 µM | 37.4 | 111 | 88.8
RPMI 5 mM glucose + 10% FBS, 0.19 µM | 44.5 | 109 | 104
RPMI 5 mM glucose + 10% FBS, 0.569 µM | 36.2 | 107 | 91.9
RPMI 5 mM glucose + 10% FBS, 1.71 µM | 25.6 | 104 | 89.2
RPMI 5 mM glucose + 10% FBS, 5.12 µM | 19.5 | 87.9 | 60.2
RPMI 5 mM glucose + 10% FBS, 15.4 µM | 9.89 | 68.3 | 45.2
RPMI 5 mM glucose + 10% FBS, 46.1 µM | 8.79 | 58.6 | 30.4
RPMI 5 mM glucose + 10% dialyzed FBS, 0.000781 µM | 40.7 | 92.1 | 112
RPMI 5 mM glucose + 10% dialyzed FBS, 0.00234 µM | 58.3 | 99.9 | 112
RPMI 5 mM glucose + 10% dialyzed FBS, 0.00702 µM | 43.3 | 115 | 106
RPMI 5 mM glucose + 10% dialyzed FBS, 0.0211 µM | 41.6 | 96.1 | 107
RPMI 5 mM glucose + 10% dialyzed FBS, 0.0632 µM | 31.2 | 99 | 102
RPMI 5 mM glucose + 10% dialyzed FBS, 0.19 µM | 34.6 | 102 | 107
RPMI 5 mM glucose + 10% dialyzed FBS, 0.569 µM | 32.7 | 100 | 97.8
RPMI 5 mM glucose + 10% dialyzed FBS, 1.71 µM | 27.2 | 92.3 | 91.3
RPMI 5 mM glucose + 10% dialyzed FBS, 5.12 µM | 19.8 | 79.7 | 67.1
RPMI 5 mM glucose + 10% dialyzed FBS, 15.4 µM | 10.5 | 63.1 | 46.3
RPMI 5 mM glucose + 10% dialyzed FBS, 46.1 µM | 5.75 | 53.4 | 29.4

AUC of viability dose-response curve
Details | [4] | [5] | [6]
HPLM + 10% dialyzed FBS | 161 | 418 | 420
RPMI 5 mM glucose + 10% FBS | 178 | 440 | 395
RPMI 5 mM glucose + 10% dialyzed FBS | 152 | 433 | 399
